Read-outs that look alike come from different tables or passages of the source.
Legend:
Type in all cases: cell-based
[1] = system: HTT mRNA; assay: Splicing RT-qPCR assay (THP), Table 2A
[2] = system: HTT mRNA; assay: Gene panel canonical junction qPCR assay, decrease in CJ mRNA, Table 3
How it was run: (§1)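 IC50 denotes the concentration giving 50% decrease in canonical-junction mRNA, fitted by 4-parameter logistic to percentage response derived from ΔΔCt versus housekeeping gene and DMSO control. Cells (A673 or K562) exposed 24 h to 11-point 3-fold serial dilutions from 10 uM top, DMSO ≤0.25%; junction-spanning primer/probe qPCR.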

[3] = system: MYB mRNA; assay: as above
How it was run: as §1

[4] = system: MYB mRNA; assay: Splicing RT-qPCR assay (THP), Table 2A
[5] = system: SH-SY5Y (human neuroblastoma) cells; assay: Cell viability, Cell Titer Glo 2.0 assay; settings: read-out: Viability SHSY5Y.3 GI50
How it was run: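 Viability was read by CellTiter-Glo 2.0 luminescence after a 72-hour compound exposure at 37° C. under 5% CO2. Cells were in IMDM plus 10% FBS containing 0.1% DMSO, and medium-only wells gave the blank.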

[6] = Table 2A (THP), AJ mRNA increase, read-out: HTT AJ (increase in alternative junction mRNA, AC50)
[7] = Table 2A (THP), CJ mRNA decrease, read-out: HTT CJ (decrease in canonical junction mRNA, IC50)
[8] = decrease in canonical junction (CJ) mRNA, gene panel qPCR, Table 3
[9] = Table 2A (THP), AJ mRNA increase, read-out: MYB AJ (increase in alternative junction mRNA, AC50)
[10] = Table 2A (THP), CJ mRNA decrease, read-out: MYB CJ (decrease in canonical junction mRNA, IC50)
[11] = Table 2A, THP, HTT alternative junction (AJ) mRNA, read-out: HTT AJ (AC50, increase in alternative junction mRNA)
[12] = Table 2A, THP, HTT canonical junction (CJ) mRNA, read-out: HTT CJ (IC50, decrease in canonical junction mRNA)
[13] = decrease in CJ mRNA levels, canonical junction qPCR, gene panel
[14] = Table 2A, THP, MYB alternative junction (AJ) mRNA, read-out: MYB AJ (AC50, increase in alternative junction mRNA)
[15] = Table 2A, THP, MYB canonical junction (CJ) mRNA, read-out: MYB CJ (IC50, decrease in canonical junction mRNA)

| SMILES | IC50 [1, 7] [µM] | IC50 [2, 8] [µM] | IC50 [3, 8] [µM] | IC50 [4, 10] [µM] | GI50 [5] [µM] | IC50 [1, 12] [µM] | IC50 [2, 13] [µM] | IC50 [3, 13] [µM] | IC50 [4, 15] [µM] | AC50 [1, 6] [µM] | AC50 [4, 9] [µM] | AC50 [1, 11] [µM] | AC50 [4, 14] [µM] |
| --- | --- | --- | --- | --- | --- | --- | --- | --- | --- | --- | --- | --- | --- |
| Cc1cn2cc(NC(=O)c3ccc(N4CCN(C5CNC5)CC4)c4cn(C)nc34)nc2c(C)n1 [Compound 533] | 0.1 to 1 | 0.1 to 1 | 0.1 to 1 | 0.1 to 1 | 0.1 to 1 | – | – | – | – | 0.1 to 1 | 0.1 to 1 | – | – |
| COc1nc2c(C(=O)Nc3cccc4c3cnn4C)ccc(N3C[C@H](C)N[C@@H](C)C3)c2s1 [Compound 715] | – | – | – | – | 0.1 to 1 | > 10 | > 10 | > 10 | > 10 | – | – | > 10 | > 10 |
| COc1c(NC(=O)c2c(F)cc(N3CCC(NC4CC4)CC3)c3nc(C)sc23)cn2cc(C)nc2c1F [Compound 663, 4-[4-(cyclopropylamino)-1-piperidyl]-6-fluoro-N-(8-fluoro-7-methoxy-2-methyl-imidazo[1,2-a]-pyridin-6-yl)-2-methyl-1,3-benzothiazole-7-carboxamide] | – | – | – | – | 1 to 10 | 1 to 10 | 1 to 10 | 1 to 10 | 1 to 10 | – | – | 1 to 10 | 1 to 10 |
| CCNC1CCN(c2ccc(C(=O)Nc3cc4cn(C)nc4cc3OC)c3nc(OC)sc23)CC1 [Compound 669, 7-[4-(ethylamino)-1-piperidyl]-2-methoxy-N-(6-methoxy-2-methyl-indazol-5-yl)-1,3-benzo-thiazole-4-carboxamide] | – | – | – | – | 1 to 10 | 1 to 10 | 1 to 10 | 1 to 10 | 1 to 10 | – | – | 1 to 10 | 0.1 to 1 |
| CNC1CCN(c2ccc(C(=O)Nc3cn4cc(C)nc(CNS(C)(=O)=O)c4n3)c3nn(C)cc23)CC1 [Compound 825] | – | – | – | – | > 10 | > 10 | > 10 | 1 to 10 | 1 to 10 | – | – | > 10 | 1 to 10 |
| Cn1cc2cc(NC(=O)c3ccc(N4CCCCC4)c4cn(C)nc34)cc(CNS(C)(=O)=O)c2n1 [Compound 844] | – | – | – | – | 1 to 10 | > 10 | > 10 | > 10 | > 10 | – | – | > 10 | > 10 |
| Cc1cn2cc(NC(=O)c3c(F)cc(N4CCC(NC5CC5)CC4)c4cn(C)nc34)nc(Oc3ccccn3)c2n1 [Compound 408, 4-[4-(cyclopropylamino)-1-piperidy1]-6-fluoro-2-methyl-N-[2-methyl-8-(2-pyridyloxy)imidazo[1,2-a]-pyrazin-6-yl]indazole-7-carboxamide] | 1 to 10 | 1 to 10 | < 0.1 | < 0.1 | 0.1 to 1 | – | – | – | – | 0.1 to 1 | < 0.1 | – | – |

Now from value to compound, other results behind:

| IC50 [1, 7] [µM] | IC50 [2, 8] [µM] | IC50 [3, 8] [µM] | IC50 [4, 10] [µM] | GI50 [5] [µM] | IC50 [1, 12] [µM] | IC50 [2, 13] [µM] | IC50 [3, 13] [µM] | IC50 [4, 15] [µM] | SMILES | AC50 [1, 6] [µM] | AC50 [4, 9] [µM] | AC50 [1, 11] [µM] | AC50 [4, 14] [µM] |
| --- | --- | --- | --- | --- | --- | --- | --- | --- | --- | --- | --- | --- | --- |
| 1 to 10 | 1 to 10 | < 0.1 | < 0.1 | 0.1 to 1 | – | – | – | – | COc1nc2nc(C)cn2cc1NC(=O)c1c(F)cc(N2CCC(NC3CC3)CC2)c2cn(C)nc12 [Compound 398, 4-[4-(cyclopropylamino)-1-piperidy1]-6-fluoro-N-(7-methoxy-2-methyl-imidazo-[1,2-a]pyrimidin-6-yl)-2-methyl-indazole-7-carboxamide] | 1 to 10 | < 0.1 | – | – |
| > 10 | > 10 | 1 to 10 | 1 to 10 | 1 to 10 | – | – | – | – | COc1c(NC(=O)c2c(F)cc(N3CCC(NC4CC4)CC3)c3cn(C)nc23)cn2cc(C)nc(C)c12 [Compound 419, 4-[4-(cyclopropylamino)-1-piperidyl]-6-fluoro-N-(8-methoxy-1,3-dimethyl-pyrrolo[1,2-a]pyrazin-7-yl)-2-methyl-indazole-7-carboxamide] | > 10 | 1 to 10 | – | – |
| > 10 | > 10 | > 10 | > 10 | 1 to 10 | – | – | – | – | Cc1cn2cc(NC(=O)c3c(C4CC4)cc(N4CCC(NC5CC5)CC4)c4cn(C)nc34)nc2c(C)n1 [Compound 474, 6-cyclopropyl-4-[4-(cyclopropylamino)-1-piperidyl]-N-(6,8-dimethyl-imidazo[1,2-a]-pyrazin-2-yl)-2-methyl-indazole-7-carboxamide] | > 10 | > 10 | – | – |
| – | – | – | – | 0.1 to 1 | 0.1 to 1 | 0.1 to 1 | 0.1 to 1 | 0.1 to 1 | Cc1cn2cc(NC(=O)c3ccc(N4CCC(NC5CC5)CC4)c4cn(C)nc34)nc2c(CO)n1 [Compound 846, 4-[4-(cyclopropylamino)-1-piperidyl]-N-[8-(hydroxymethyl)-6-methyl-imidazo[1,2-a]pyrazin-2-yl]-2-methyl-indazole-7-carboxamide] | – | – | 0.1 to 1 | 0.1 to 1 |
| – | – | – | – | 1 to 10 | > 10 | > 10 | > 10 | > 10 | Cc1cn2cc(NC(=O)c3c(F)cc(N4CCC(NC5CC5)CC4)c4nc(C)sc34)cc(F)c2n1 [Compound 662, 4-[4-(cyclopropyl-amino)-1-piperidyl]-6-fluoro-N-(8-fluoro-2-methyl-imidazo[1,2-a]pyridin-6-yl)-2-methyl-1,3-benzothiazole-7-carboxamide] | – | – | > 10 | > 10 |
| – | – | – | – | > 10 | > 10 | > 10 | > 10 | > 10 | Cc1cn2cc(NC(=O)c3ccc(N4CCC5(CCCN5)CC4)c4cn(C)nc34)nc2c(CNS(C)(=O)=O)n1 [Compound 826] | – | – | > 10 | > 10 |
| – | – | – | – | 0.1 to 1 | > 10 | > 10 | < 0.1 | < 0.1 | COc1nc2c(C(=O)Nc3cc(F)c4nn(C)cc4c3)ccc(N3CCN[C@@H](C(C)C)C3)c2s1 [Compound 732] | – | – | > 10 | < 0.1 |
| – | – | – | – | 1 to 10 | 1 to 10 | 1 to 10 | 1 to 10 | 1 to 10 | COc1c(NC(=O)c2ccc(N3CCC(NC4CC4)CC3)n3cc(C)nc23)cn2cc(C)nc(C)c12 [Compound 631, 5-[4-(cyclopropylamino)-1-piperidyl]-N-(8-methoxy-1,3-dimethyl-pyrrolo[1,2-a]pyrazin-7-yl)-2-methyl-imidazo[1,2-a]pyridine-8-carboxamide] | – | – | 1 to 10 | 1 to 10 |
| > 10 | > 10 | > 10 | > 10 | > 10 | – | – | – | – | CCNC1CCN(c2ccc(C(=O)Nc3ccn(-c4ccncn4)n3)c3nn(C)cc23)CC1 [Compound 363, 4-(4-(ethylamino)-piperidin-1-yl)-2-methyl-N-(1-(pyrimidin-4-yl)-1H-pyrazol-3-yl)-2H-indazole-7-carboxamide 2,2,2-trifluoroacetate] | > 10 | > 10 | – | – |
| 1 to 10 | 1 to 10 | 1 to 10 | 1 to 10 | 1 to 10 | – | – | – | – | CCNC1CCN(c2ccc(C(=O)Nc3nc4c(C)nc(C)cc4[nH]3)c3nn(C)cc23)CC1 [Compound 572, N-(4,6-dimethyl-1H-imidazo[4,5-c]-pyridin-2-yl)-4-[4-(ethylamino)-1-piperidyl]-2-methyl-indazole-7-carboxamide] | > 10 | 1 to 10 | – | – |

From patent US20260285853A1, “COMPOUNDS AND METHODS FOR MODULATING SPLICING” (REMIX THERAPEUTICS INC., priority 2023, published 2026)
